Tests used:
[1] = biological target: Vascular endothelial growth factor receptor 2 (Homo sapiens, UniProt P35968); assay: biochemical; type: cell-based, Sf9
Description: Inhibition of recombinant GST tagged VEGFR2 (789 to 1356) (unknown origin) transfected in insect sf9 cells after 120 mins by wallac counting analysis

[2] = tested on: MOLM-13; assay: cells; settings: Homo sapiens, MOLM-13, 72 h
[3] = biological target: T1, Aurora kinase A (Homo sapiens, UniProt O14965); assay: biochemical
T1 sequence (O14965 whole entry): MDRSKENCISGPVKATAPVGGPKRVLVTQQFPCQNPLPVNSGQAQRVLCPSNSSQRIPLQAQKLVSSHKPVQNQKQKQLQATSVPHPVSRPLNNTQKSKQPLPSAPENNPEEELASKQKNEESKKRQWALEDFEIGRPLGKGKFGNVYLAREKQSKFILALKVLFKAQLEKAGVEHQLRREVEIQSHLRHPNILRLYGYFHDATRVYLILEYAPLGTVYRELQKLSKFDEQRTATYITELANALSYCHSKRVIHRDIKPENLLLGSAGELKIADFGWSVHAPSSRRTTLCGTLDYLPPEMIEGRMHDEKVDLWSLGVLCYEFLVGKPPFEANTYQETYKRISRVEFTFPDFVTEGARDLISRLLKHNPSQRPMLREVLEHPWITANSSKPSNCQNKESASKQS
Description: Inhibition of recombinant GST tagged Aurora A kinase (123 to 401) (unknown origin) transfected in insect sf9 cells after 90 mins by wallac counting analysis

[4] = biological target: T2, Receptor-type tyrosine-protein kinase FLT3 (Homo sapiens, UniProt P36888); assay: biochemical; type: cell-based, Sf9
T2 sequence (P36888 whole entry): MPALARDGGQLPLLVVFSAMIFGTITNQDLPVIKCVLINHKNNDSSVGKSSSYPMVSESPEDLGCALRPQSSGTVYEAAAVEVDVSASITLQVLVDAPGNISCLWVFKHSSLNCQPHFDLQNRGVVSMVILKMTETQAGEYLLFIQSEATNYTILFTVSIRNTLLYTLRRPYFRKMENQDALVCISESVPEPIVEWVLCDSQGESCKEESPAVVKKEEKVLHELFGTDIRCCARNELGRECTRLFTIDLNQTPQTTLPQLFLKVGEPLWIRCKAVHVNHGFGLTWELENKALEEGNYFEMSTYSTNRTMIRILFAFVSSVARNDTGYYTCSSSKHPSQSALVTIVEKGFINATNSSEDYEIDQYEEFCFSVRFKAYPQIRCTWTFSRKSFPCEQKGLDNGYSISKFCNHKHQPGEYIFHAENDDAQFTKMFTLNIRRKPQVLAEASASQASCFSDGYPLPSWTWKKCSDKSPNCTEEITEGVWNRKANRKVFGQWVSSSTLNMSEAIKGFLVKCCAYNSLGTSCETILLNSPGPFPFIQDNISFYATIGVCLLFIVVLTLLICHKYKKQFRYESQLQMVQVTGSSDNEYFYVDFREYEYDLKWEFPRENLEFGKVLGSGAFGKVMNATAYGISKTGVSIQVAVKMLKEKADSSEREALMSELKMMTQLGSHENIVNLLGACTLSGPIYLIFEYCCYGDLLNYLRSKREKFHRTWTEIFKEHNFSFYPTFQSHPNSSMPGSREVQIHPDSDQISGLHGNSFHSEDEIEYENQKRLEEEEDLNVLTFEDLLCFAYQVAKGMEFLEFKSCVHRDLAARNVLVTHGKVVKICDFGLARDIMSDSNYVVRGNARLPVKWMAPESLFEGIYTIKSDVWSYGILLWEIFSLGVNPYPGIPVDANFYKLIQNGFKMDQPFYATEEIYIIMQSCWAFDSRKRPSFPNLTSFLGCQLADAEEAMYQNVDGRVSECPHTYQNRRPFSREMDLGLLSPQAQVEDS
Description: Inhibition of wild type GST tagged FLT3 kinase (567 to 993) (unknown origin) transfected in insect sf9 cells after 4 hrs by wallac counting analysis

[5] = Volume of distribution at steady state in Sprague-Dawley rat at 2 mg/kg, iv; type: ADME, organism-based; parameters: dose 2 mg/kg, route intravenous; settings: in vivo, read-out: Vdss
[6] = Oral bioavailability in Sprague-Dawley rat at 10 mg/kg; type: ADME, organism-based; settings: in vivo
[7] = AUC (0 to infinity) in Sprague-Dawley rat at 2 mg/kg, iv; type: ADME, organism-based; parameters: time infinity, dose 2 mg/kg, route intravenous; settings: plasma
[8] = Plasma clearance in Sprague-Dawley rat at 2 mg/kg, iv; type: ADME, organism-based; parameters: dose 2 mg/kg, route intravenous
[9] = Half life in Sprague-Dawley rat at 2 mg/kg, iv; type: ADME, organism-based; parameters: dose 2 mg/kg, route intravenous; settings: in vivo

Sequence of Vascular endothelial growth factor receptor 2 (P35968 whole entry): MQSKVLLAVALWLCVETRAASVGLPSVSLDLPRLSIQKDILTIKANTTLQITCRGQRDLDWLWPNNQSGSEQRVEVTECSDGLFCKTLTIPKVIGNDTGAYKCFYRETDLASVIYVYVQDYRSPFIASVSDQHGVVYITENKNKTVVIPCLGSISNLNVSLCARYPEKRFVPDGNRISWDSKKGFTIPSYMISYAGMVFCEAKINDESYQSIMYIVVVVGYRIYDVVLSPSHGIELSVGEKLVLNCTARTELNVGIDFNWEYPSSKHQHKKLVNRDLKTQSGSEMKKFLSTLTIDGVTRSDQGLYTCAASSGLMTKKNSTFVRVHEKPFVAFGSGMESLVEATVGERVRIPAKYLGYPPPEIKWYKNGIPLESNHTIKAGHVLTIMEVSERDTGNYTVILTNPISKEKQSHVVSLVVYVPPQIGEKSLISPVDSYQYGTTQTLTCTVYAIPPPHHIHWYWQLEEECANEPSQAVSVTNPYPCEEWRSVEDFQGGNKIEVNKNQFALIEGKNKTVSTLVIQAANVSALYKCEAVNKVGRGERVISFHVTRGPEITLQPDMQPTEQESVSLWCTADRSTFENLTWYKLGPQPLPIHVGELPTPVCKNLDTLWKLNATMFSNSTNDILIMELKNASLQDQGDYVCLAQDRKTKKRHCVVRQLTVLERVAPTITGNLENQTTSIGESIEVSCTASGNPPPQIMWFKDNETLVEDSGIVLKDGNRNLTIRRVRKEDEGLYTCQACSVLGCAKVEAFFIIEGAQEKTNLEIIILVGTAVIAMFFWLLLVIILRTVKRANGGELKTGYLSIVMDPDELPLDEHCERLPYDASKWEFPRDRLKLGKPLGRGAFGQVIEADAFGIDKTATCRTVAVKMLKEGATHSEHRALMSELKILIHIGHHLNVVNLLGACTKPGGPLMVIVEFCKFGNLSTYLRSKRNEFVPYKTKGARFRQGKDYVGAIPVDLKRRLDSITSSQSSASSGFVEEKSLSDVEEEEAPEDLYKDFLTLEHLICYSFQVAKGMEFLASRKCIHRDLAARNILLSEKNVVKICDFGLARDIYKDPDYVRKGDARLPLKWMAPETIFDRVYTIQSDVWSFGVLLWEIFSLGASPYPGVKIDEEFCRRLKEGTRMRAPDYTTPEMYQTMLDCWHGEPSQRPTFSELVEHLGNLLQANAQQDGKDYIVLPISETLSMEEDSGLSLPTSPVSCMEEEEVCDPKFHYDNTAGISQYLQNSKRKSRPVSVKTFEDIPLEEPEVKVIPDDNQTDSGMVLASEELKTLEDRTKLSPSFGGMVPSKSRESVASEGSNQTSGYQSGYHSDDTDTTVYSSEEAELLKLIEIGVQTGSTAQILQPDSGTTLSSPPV

SMILES | IC50 [1] | GI50 [2] | IC50 [3] | IC50 [4] | Vd [5] | bioavailability [6] | AUC(0-inf) [7] | clearance [8] | half-life [9]
Cc1nc(Nc2cc(-c3ccc(CNC(=O)Nc4cc(C(C)(C)C)on4)cc3)n[nH]2)cc(N2CCN(C)CC2)n1 | 12 nM | 3 nM | 120 nM | 35 nM |  |  |  |  | 
Cc1nc(Nc2cc(-c3ccc(CNC(=O)Nc4cc(C(C)(C)C)on4)cc3)n[nH]2)cc(N2CCN(CCO)CC2)n1 | 50 nM | 5 nM | 490 nM | 95 nM |  |  |  |  | 
CN1CCN(c2ccc(C(=O)Nc3cc(-c4ccc(NC(=O)Nc5cc(C(C)(C)C)on5)cc4)n[nH]3)cc2)CC1 | 12 nM | 5 nM | 53 nM | 30 nM |  |  |  |  | 
O=C(NCc1ccc(-c2cc(NC(=O)c3ccc(OCCN4CCOCC4)cc3)[nH]n2)cc1)Nc1ccccc1 | 54 nM | 3 nM | 760 nM | 9 nM |  |  |  |  | 
CCNC(=O)Nc1ccc(-c2cc(NC(=O)c3ccc(N4CCN(C)CC4)cc3)[nH]n2)cc1 | 100 nM | 33 nM | > 1000 nM | 94 nM |  |  |  |  | 
CN1CCN(c2ccc(C(=O)Nc3cc(-c4ccc(NC(=O)NC5CC5)cc4)n[nH]3)cc2)CC1 | 300 nM | 18 nM | > 1000 nM | 52 nM |  |  |  |  | 
Cc1nc(Nc2cc(-c3ccc(CNC(=O)Nc4cc(C(C)(C)C)on4)cc3)n[nH]2)cc(N2CCNCC2)n1 | 85 nM | 8 nM | 710 nM | 26 nM |  |  |  |  | 
Cc1nc(Nc2cc(-c3ccc(CNC(=O)Nc4cccc(Cl)c4)cc3)n[nH]2)cc(N2CCNCC2)n1 | 38 nM | 18 nM | 790 nM | 26 nM |  |  |  |  | 
CN1CCN(Cc2ccc(C(=O)Nc3cc(-c4ccc(CNC(=O)Nc5cc(C(C)(C)C)on5)cc4)n[nH]3)cc2)CC1 | 18 nM | 3 nM | > 1000 nM | 4 nM | 8 L/kg |  | 2120 ng·h/mL | 17.2 mL/min/kg | 11 h
Cc1nc(Nc2cc(-c3ccc(CNC(=O)Nc4cc(C)on4)cc3)n[nH]2)cc(N2CCN(CCO)CC2)n1 | 120 nM | 16 nM | 98 nM | 17 nM |  |  |  |  | 
Cc1cc(NC(=O)Nc2ccc(-c3cc(NC(=O)c4ccc(N5CCN(C)CC5)cc4)[nH]n3)cc2Cl)no1 | > 1000 nM | 7 nM | 600 nM | 390 nM |  |  |  |  | 
Cc1cnc(NC(=O)Nc2ccc(-c3cc(NC(=O)c4ccc(N5CCN(C)CC5)cc4)[nH]n3)cc2)s1 | 35 nM | 9 nM | 65 nM | 50 nM |  |  |  |  | 
CN1CCN(Cc2ccc(C(=O)Nc3cc(-c4ccc(NC(=O)Nc5cc(C(C)(C)C)on5)cc4)n[nH]3)cc2)CC1 | 12 nM | 1 nM | 160 nM | 8 nM |  |  |  |  | 
Cc1cc(-c2cc(NC(=O)c3ccc(CN4CCN(C)CC4)cc3)[nH]n2)ccc1NC(=O)Nc1cc(C(C)(C)C)on1 |  |  |  |  | 10 L/kg |  | 3020 ng·h/mL | 11.3 mL/min/kg | 17 h
O=C(NCc1ccc(-c2cc(NC(=O)c3ccc(OCCN4CCOCC4)cc3)[nH]n2)cc1)Nc1ccc(Cl)cc1 | 71 nM | 3 nM | > 1000 nM | 16 nM |  |  |  |  | 
CN1CCN(c2ccc(C(=O)Nc3cc(-c4ccc(NC(=O)N5CCCC5)cc4)n[nH]3)cc2)CC1 | > 1000 nM | 37 nM | > 1000 nM | 70 nM |  |  |  |  | 
CN1CCN(c2ccc(C(=O)Nc3cc(-c4ccc(NC(=O)Nc5cccnc5)cc4)n[nH]3)cc2)CC1 | 190 nM | 22 nM | 300 nM | 74 nM |  |  |  |  | 

More lines, now with the values ahead:

IC50 [1] | GI50 [2] | IC50 [3] | IC50 [4] | Vd [5] | bioavailability [6] | AUC(0-inf) [7] | clearance [8] | half-life [9] | SMILES
22 nM | 2 nM | 160 nM | 19 nM |  |  |  |  |  | CC(C)(C)c1cc(NC(=O)Nc2ccc(-c3cc(NC(=O)c4ccc(OCCN5CCOCC5)cc4)[nH]n3)cc2)no1
73 nM | 42 nM | 610 nM | 40 nM |  |  |  |  |  | CN1CCN(c2ccc(C(=O)Nc3cc(-c4ccc(NC(=O)Nc5ccccn5)cc4)n[nH]3)cc2)CC1
82 nM | 4 nM | > 1000 nM | 22 nM |  |  |  |  |  | CN1CCN(Cc2ccc(C(=O)Nc3cc(-c4ccc(CNC(=O)Nc5ccccc5)cc4)n[nH]3)cc2)CC1
31 nM | 3 nM | 120 nM | 6 nM |  |  |  |  |  | Cc1cc(NC(=O)Nc2ccc(-c3cc(NC(=O)c4ccc(N5CCN(C)CC5)cc4)[nH]n3)cc2)no1
27 nM | 8 nM | 69 nM | 20 nM | 4.7 L/kg | 4% | 2860 ng·h/mL | 13.9 mL/min/kg | 5.3 h | Cc1cc(-c2cc(NC(=O)c3ccc(OCCN4CCOCC4)cc3)[nH]n2)ccc1NC(=O)Nc1cc(C(C)(C)C)on1
 | 2 nM |  |  |  |  |  |  |  | O=C(NCc1ccc(-c2cc(NC(=O)c3ccc(OCCN4CCCC4)cc3)[nH]n2)cc1)OCc1ccccc1
130 nM | 5 nM | > 1000 nM | 66 nM |  |  |  |  |  | O=C(NCc1ccc(-c2cc(NC(=O)c3ccc(OCCN4CCOCC4)cc3)[nH]n2)cc1)Nc1ccc(F)cc1
26 nM | 6 nM | 330 nM | 13 nM |  |  |  |  |  | CN1CCN(c2ccc(C(=O)Nc3cc(-c4ccc(NC(=O)Nc5ccccc5)cc4)n[nH]3)cc2)CC1
100 nM | 9 nM | 320 nM | 21 nM |  |  |  |  |  | Cc1nc(Nc2cc(-c3ccc(CNC(=O)Nc4cc(C)on4)cc3)n[nH]2)cc(N2CCN(C)CC2)n1
50 nM | 2 nM | 940 nM | 13 nM |  |  |  |  |  | Cc1cc(NC(=O)NCc2ccc(-c3cc(NC(=O)c4ccc(N5CCN(C)CC5)cc4)[nH]n3)cc2)no1
38 nM | 1 nM | 250 nM | 9 nM |  |  |  |  |  | Cc1cc(NC(=O)Nc2ccc(-c3cc(NC(=O)c4ccc(N5CCN(C)CC5)cc4)[nH]n3)cc2C)no1
12 nM | 2 nM | 47 nM | 15 nM |  |  |  |  |  | CC(C)(C)c1cc(NC(=O)Nc2ccc(-c3cc(NC(=O)c4ccc(OCCN5CCCC5)cc4)[nH]n3)cc2)no1
620 nM | 160 nM | 500 nM | 280 nM |  |  |  |  |  | Cc1nc(Nc2cc(-c3ccc(NC(=O)Nc4ccccc4)cc3)n[nH]2)cc(N2CCN(C)CC2)n1
 | 21 nM |  | 11 nM |  |  |  |  |  | CN1CCN(c2ccc(C(=O)Nc3cc(-c4cccc(NS(=O)(=O)c5ccccc5)c4)n[nH]3)cc2)CC1
